Structures can show the parent of a compound that is named as a salt.
System: oxygen-dissociation curve in whole human blood
Assay: not given
Settings: in vitro, increase of 2,3-DPG; cited from earlier work

Structure (SMILES) | displacement of the oxygen-dissociation curve (in words)
O=C(O)C(COP(=O)(O)O)OP(=O)(O)O (centres unmarked) [2,3-DPG, 2,3-diphosphoglyceric acid] | displaces in vitro the oxygen-dissociation curve to the right of normal

Molecular target: T1, 2,3-DPG phosphatase (Homo sapiens, UniProt P07738)
T1 sequence (P07738 1-259): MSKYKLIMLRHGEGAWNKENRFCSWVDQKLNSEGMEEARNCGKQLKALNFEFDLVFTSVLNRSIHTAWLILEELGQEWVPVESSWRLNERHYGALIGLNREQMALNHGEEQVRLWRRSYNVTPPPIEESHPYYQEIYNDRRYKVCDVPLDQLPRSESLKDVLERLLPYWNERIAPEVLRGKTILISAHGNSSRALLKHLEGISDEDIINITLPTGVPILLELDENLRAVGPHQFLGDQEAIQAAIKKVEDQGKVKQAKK
Assay: 2,3-Diphosphoglycerate Phosphatase Assay (radiochemical, release of inorganic 32P-phosphate from 2,3-DPG)
Format: biochemical
Settings: 100 μM compound; pH 7.5, 110 μM 32P-labeled 2,3-DPG, 5 μM phosphoglycolate, 37° C., 20 minutes
Description: 2,3-Diphosphoglycerate Phosphatase Assay The activity of 2,3-DPG phosphatase was determined radiochemically using a method based on Rose et al. (J. Biol. Chem. 245, 3232-3241, 1970). In this method the activity of the phosphatase is measured by determining the release of inorganic phosphate from the substrate, 2,3-DPG. The test compounds were dissolved in dimethyl sulfoxide at 100 times the final concentration used and then added to the reaction mixture at the beginning of the assay period. In the control experiments equivalent concentration of dimethyl sulfoxide was used. […] At the end of incubation the reaction was stopped by the addition of 0.1 ml of 15% w/v trichloroacetic acid and the sample was centrifuged (Eppendorf microfuge, Model 5413) in order to remove protein precipitates. Then 0.2 ml of the supernatant was withdrawn and mixed with 0.1 ml of 8 M sulfuric acid, 0.1 ml of 5% w/v ammonium molybdate and 0.6 ml of water. The mixture then was extracted with 2 ml of isobutanol/benzene (1:1,v/v) and then centrifuged to effect separation of the phases. 1 ml of the organic phase containing the extracted ^32 p-phosphate was counted in a scintillation counter (Beckman, Model LS 8,000) using a program for ^32 p radioactivity. The activity of the enzyme was expressed as number of mole phosphate release per minute. From the data obtained by employing the test method above-described, the percent inhibition of 2,3-DPG phosphatase was calculated and is shown in Table II.

Structure (SMILES) | inhibition at 100 µM [%]
COc1cccc2cc(C(=O)O)c(O)cc12 [a, 5-methoxy-3-hydroxy-2-naphthoic acid] | 79.2
O=C(O)c1cc2cccc(OCCc3ccccc3)c2cc1O [b, 5-phenetoxy-3-hydroxy-2-naphthoic acid] | 94.3
O=C(O)c1cc2cccc(OCc3cccc(C(F)(F)F)c3)c2cc1O [c, 5-(3-trifluoromethylbenzyloxy)-3-hydroxy-2-naphthoic acid] | 94.3
O=C(O)c1cc2cccc(OCCOc3ccccc3)c2cc1O [d, 5-phenoxyethoxy-3-hydroxy-2-naphthoic acid] | 92.5
CC(=O)Oc1cccc2cc(C(=O)O)c(O)cc12 [g, 5-acetoxy-3-hydroxy-2-naphthoic acid] | 89.6
O=C(O)c1cc2cccc(OCc3ccccc3)c2cc1O [h, 5-benzyloxy-3-hydroxy-2-naphthoic acid] | 74
CCOC(=O)c1cc2cccc(OCCN3CCCC3)c2cc1OCCN1CCCC1 [p, ethyl 3,5-bis[2-(1-pyrrolidinyl)ethoxy]-2-naphthoate monohydrochloride] | 99.2
O=C(O)c1cc2cccc(OCc3ccc(Cl)c(Cl)c3)c2cc1O [q, 5-(3,4-dichlorobenzyloxy)-3-hydroxy-2-naphthoic acid] | 97.7
O=C(O)c1cc2cccc(OCCCc3ccccc3)c2cc1O [r, 3-hydroxy-5-(3-phenylpropoxy)-2-naphthoic acid] | 97.1
O=C(O)c1cc2cccc(OCc3ccc(Cl)cc3Cl)c2cc1O [s, 5-(2,4-dichlorobenzyloxy)-3-hydroxy-2-naphthoic acid] | 95.6
O=C(O)c1cc2cccc(OCc3c(Cl)cccc3Cl)c2cc1O [t, 5-(2,6-dichlorobenzyloxy)-3-hydroxy-2-naphthoic acid] | 94.2
O=C(O)c1cc2cccc(OCCCc3ccc(Cl)c(Cl)c3)c2cc1O [u, 5-[3-(3,4-dichlorophenyl)-propoxy]-3-hydroxy-2-naphthoic acid] | 86.9
O=C(O)c1cc2cccc(OCc3ccc(F)cc3)c2cc1O [v, 5-(4-fluorobenzyloxy)-3-hydroxy-2-naphthoic acid] | 89
O=C(O)c1cc2cccc(OCc3ccc(Cl)c(Cl)c3)c2cc1OCc1ccc(Cl)c(Cl)c1 [w, 3,5-bis-(3,4-dichlorobenzyloxy)-2-naphthoic acid] | 93.6
C=CCCCCCCCCCOc1cccc2cc(C(=O)O)c(O)cc12 [x, 3-hydroxy-5(undecenyloxy)-2-naphthoic acid] | 100
O=C(O)c1cc2cccc(OCc3ccccc3)c2cc1OC(=O)C(Cl)Cl [y, 5-benzyloxy-3-dichloroacetoxy-2-naphthoic acid] | 81.9

Reference: patent US4861795A, “Treatment of conditions requiring enhanced oxygen availability to mammalian tissues” (Rorer Pharmaceutical Corporation, priority 1988, dated 1989)
